Results: US20240270744A1 (Hoffmann-La Roche Inc., priority 2021, published 2024)

Experiments:
[1] = target: human GABAA α5β2γ1 receptor (Homo sapiens (Human), UniProt P31644+Q8N1C3); assay: Radioligand binding assay, competition for [3H]RO7239181, γ1-containing GABAA subtypes; conditions: Table 1; [3H]RO7239181 displacement, membranes from HEK293F cells, mean of two determinations
Procedure: The affinity of compounds at GABAA γ1 subunit-containing receptors was measured by competition for [^3H]RO7239181 (67.3 Ci/mmol; Roche) binding to membranes from HEK293F cells (ThermoFisher R79007) expressing human (transiently transfected) receptors of composition α5β2γ1, α2β2γ1, α1β2γ1. For better protein expression of the α2 subunit-containing receptors, the 28 amino acid long signal peptide (Met1 to Ala28) of the human GABAA α2 subunit was substituted by the 31 amino acid long signal peptide (Met1 to Ser31) of human GABAA α5 subunit.
Harvested pellets from HEK293F cells expressing the different GABAA receptor subtypes were resuspended in Mannitol Buffer pH 7.2-7.4 (Mannitol 0.29 M, Triethylamine 10 mM, Acetic acid 10 mM, EDTA 1 mM plus protease inhibitors (20 tablets Complete, Roche Diagnostics Cat. No. 05 056 489 001 per liter)), washed two times and then resuspended at 1:10 to 1:15 dilution in the same buffer. Cell disruption was performed by stirring the suspension in a Parr vessel #4637 at 435 psi for 15 minutes, and then the suspensions were centrifuged at 1000×g for 15 minutes at 4° C. (Beckman Avanti J-HC: rotor JS-4.2). The supernatant (S1) was transferred in a 21 Schott flask and the pellet (P1) was resuspended with Mannitol Buffer up to 175 ml. The resuspended pellet was transferred into a 250 ml Corning centrifugal beaker and centrifuged at 1500×g for 10 minutes at 4° C. (Beckman Avanti J-HC: rotor JS-4.2). The supernatant (S1) was then transferred in the 21 Schott flask and the pellet was discarded. The supernatants (S1) were centrifuged in 500 ml Beckman polypropylene centrifugal beaker at 15′000×g for 30 minutes at 4° C. (Beckman Avanti J-20 XP; rotor JLA-10.500). The pellet (P2) was resuspended with Mannitol Buffer 1:1 and frozen at −80° C. The supernatant (S2) was centrifuged in 100 ml Beckman polypropylene centrifugal tubes at 48000×g for 50 minutes at 4° C. (Beckman Avanti J-20 XP; rotor JA-18). The supernatant (S3) was discarded and the pellet (P3) was resuspended with 1:1 Mannitol Buffer. The P2 and P3 protein concentration was determined with the BIORAD Standard assay method with bovine serum albumin as standard and measured on the NANO-Drop 1000. The membrane suspension was aliquots (500 μl per tube) and stored at −80° C. until required.
Membrane homogenates were resuspended and polytronised (Polytron PT1200E Kinematica AG) in Potassium Phosphate 10 mM, KCl 100 mM binding buffer at pH 7.4 to a final assay concentration determined with a previous experiment.
Radioligand binding assays were carried out in a volume of 200 μL (96-well plates) which contained 100 μL of cell membranes, [3H]RO7239181 at a concentration of 1.5 nM (α5β2γ1) or 20-30 nM (α1β2γ1, α2β2γ1) and the test compound in the range of [0.3-10000]=10^−9 M. Nonspecific binding was defined by 10×10^−6 (α5β2γ1) and 30×10^−6 M RO7239181 and typically represented less than 5% (α5β2γ1) and less than 20% (β1β2γ1, α2β2γ1) of the total binding. Assays were incubated to equilibrium for 1 hour at 4° C. and then, membranes were filtered onto unifilter (96-well white microplate with bonded GF/C filters preincubated 20-50 minutes in 0.3% Polyethylenimine) with a Filtermate 196 harvester (Packard BioScience) and washed 4 times with cold Potassium Phosphate 10 mM pH 7.4, KCl 100 mM binding buffer. After anhydrousing, filter-retained radioactivity was detected by liquid scintillation counting. Ki values were calculated using Excel-Fit (Microsoft) and are the means of two determinations.
Representative test results, obtained by the above described assay measuring binding affinity to HEK293 cells expressing human (h) receptors, are shown in the Table 1.

h-GABA-A α2β2γ1 = h-GABA-A α2β2γ1 (Homo sapiens (Human), UniProt P47869+Q8N1C3); assay: Two-electrode voltage clamp electrophysiology in Xenopus oocytes expressing GABAA receptors; format: cell-based; conditions: Table 2; for Efficacy (GABA) %: % modulation of GABA EC20 = 100*(Fold increase-1), compound at 30-fold Ki; for Fold increase h-GABA-A α2β2γ1 oocyte @ 30-fold Ki: GABA EC20, test compound at approx. 30-fold its Ki α2β2γ1, Xenopus oocytes, -80 mV
Procedure: Xenopus laevis oocytes at maturation stages V-VI were used for the expression of cloned mRNA encoding GABAA receptor subunits. Oocytes ready for RNA micro-injection were bought from Ecocyte, Castrop-Rauxel, Germany and stored in modified Barth's medium (composition in mM: NaCl 88, KCl 1, NaHCO3 2.4, HEPES 10, MgSO4 0.82, CaNO3 0.33, CaCl2 0.33, pH=7.5) at 20° C. until the experiment.
Oocytes were plated in 96-well plates for microinjection using the Roboinject automated instrument (MultiChannelSystems, Reutlingen, Germany). Approximately 50 nL of an aqueous solution containing the RNA transcripts for the subunits of the desired GABAA receptor subtype was injected into each oocyte. […] Oocytes were kept in modified Barth's medium (composition in mM: NaCl 88, KCl 1, NaHCO3 […], HEPES 10, MgSO4 0.82, CaNO3 0.33, CaCl2 0.33, pH=7.5) at 20° C. until the experiment.
Electrophysiological experiments were performed using the Roboocyte instrument (MultiChannelSystems, Reutlingen, Germany) on days 3 to 5 after the micro-injection of mRNA. During the experiment the oocytes were constantly superfused by a solution containing (in mM) NaCl 90, KCl 1, HEPES 5, MgCl2 1, CaCl2 1 (pH 7.4). Oocytes were impaled by two glass microelectrodes (resistance: […]) which were filled with a solution containing KCl 1M+K-acetate 1.5 M and voltage-clamped to −80 mV. The recordings were performed at room temperature using the Roboocyte two-electrode voltage clamp system (Multichannelsystem). After an initial equilibration period of 1.5 min GABA was added for 1.5 min at a concentration evoking approximately 20% of a maximal current response (EC20). After another rest interval of 2.5 min GABA was again added evoking a response of similar amplitude and shape. […] Current traces were recorded at a digitization rate of 10 Hz during and shortly before and after the GABA application.
Each compound and concentration was tested on at least 3 oocytes. Different oocytes were used for different compound concentrations.
For the analysis, the digitized current traces of the first and second GABA response were superimposed and, if necessary, rescaled to equal maximal amplitudes. The ratio between the two responses during the time interval of test compound application was calculated point by point. The extremum of the resulting “ratio trace” was taken as the efficacy (“Fold increase”) of the compound expressed as “% modulation of GABA EC20” (100*(Fold increase−1)).

| SMILES | Ki [1] | Efficacy (GABA) % (h-GABA-A α2β2γ1) | Fold increase h-GABA-A α2β2γ1 oocyte @ 30-fold Ki (h-GABA-A α2β2γ1) |
| --- | --- | --- | --- |
| C[C@@H]1N=C(c2c(F)cccc2F)c2c(cnc(C(F)(F)F)c2Cl)-n2nc(NC(=O)C3COC3)nc21 [Example 12, N-[(7S)-11-chloro-9-(2,6-difluorophenyl)-7-methyl-12-(trifluoromethyl)-2,3,5,8,13-pentazatricyclo[8.4.0.02,6]tetradeca-1(10),3,5,8,11,13-hexaen-4-yl]oxetane-3-carboxamide] | 5.2 nM | 143% | 2.43 |
| C[C@@H]1N=C(c2c(F)cccc2F)c2c(cnc(C(F)(F)F)c2Cl)-n2nc(N3CCCC3=O)nc21 [Example 13, 1-[(7S)-11-chloro-9-(2,6-difluorophenyl)-7-methyl-12-(trifluoromethyl)-2,3,5,8,13-pentazatricyclo[8.4.0.02,6]tetradeca-1(10),3,5,8,11,13-hexaen-4-yl]pyrrolidin-2-one] | 3.1 nM | 173% | 2.73 |
| C[C@H](O)CNC(=O)c1nc2n(n1)-c1cnc(C(F)(F)F)c(Cl)c1C(c1c(F)cccc1F)=N[C@H]2C [Example 14, (7S)-11-chloro-9-(2,6-difluorophenyl)-N-[(2S)-2-hydroxypropyl]-7-methyl-12-(trifluoromethyl)-2,3,5,8,13-pentazatricyclo[8.4.0.02,6]tetradeca-1(10),3,5,8,11,13-hexaene-4-carboxamide] | 3.7 nM | 158% | 2.58 |
| C[C@@H]1N=C(c2c(F)cccc2F)c2c(cnc(C(F)(F)F)c2Cl)-n2nc(C(=O)NCCO)nc21 [Example 15, (7S)-11-chloro-9-(2,6-difluorophenyl)-N-(2-hydroxyethyl)-7-methyl-12-(trifluoromethyl)-2,3,5,8,13-pentazatricyclo[8.4.0.02,6]tetradeca-1(10),3,5,8,11,13-hexaene-4-carboxamide] | 2.6 nM | 146% | 2.46 |
| C[C@@H]1N=C(c2c(F)cccc2F)c2c(cnc(C(F)(F)F)c2Cl)-n2nc(C(=O)NC[C@@H](C)O)nc21 [Example 16, (7S)-11-chloro-9-(2,6-difluorophenyl)-N-[(2R)-2-hydroxypropyl]-7-methyl-12-(trifluoromethyl)-2,3,5,8,13-pentazatricyclo[8.4.0.02,6]tetradeca-1(10),3,5,8,11,13-hexaene-4-carboxamide] | 4.1 nM | 166% | 2.66 |
| Cc1nnc2n1-c1cnc(C(F)(F)F)c(Cl)c1C(c1c(F)cccc1Cl)=N[C@H]2C [Example 17, (7S)-11-chloro-9-(2-chloro-6-fluoro-phenyl)-3,7-dimethyl-12-(trifluoromethyl)-2,4,5,8,13-pentazatricyclo[8.4.0.02,6]tetradeca-1(10),3,5,8,11,13-hexaene] | 3.8 nM | 91% | 1.91 |
| C[C@@H]1N=C(c2c(F)cccc2F)c2c(cnc(C(F)(F)F)c2Cl)-n2cc(C(=O)NCCO)nc21 [Example 19, (7S)-11-chloro-9-(2,6-difluorophenyl)-N-(2-hydroxyethyl)-7-methyl-12-(trifluoromethyl)-2,5,8,13-tetrazatricyclo[8.4.0.02,6]tetradeca-1(10),3,5,8,11,13-hexaene-4-carboxamide] | 3.8 nM | 170% | 2.70 |
| C[C@@H]1N=C(c2c(F)cccc2F)c2c(cnc(C(F)(F)F)c2Cl)-n2c1nc1c2CCC1 [Example 20, (10S)-6-chloro-8-(2,6-difluorophenyl)-10-methyl-5-(trifluoromethyl)-1,4,9,12-tetrazatetracyclo[9.6.0.02,7.013,17]heptadeca-2(7),3,5,8,11,13(17)-hexaene] | 4.9 nM | 108% | 2.08 |
| C[C@@H]1N=C(c2c(F)cccc2F)c2c(cnc(C(F)(F)F)c2Cl)-n2nc(C(=O)NCC(C)(C)O)nc21 [Example 21, (7S)-11-chloro-9-(2,6-difluorophenyl)-N-(2-hydroxy-2-methyl-propyl)-7-methyl-12-(trifluoromethyl)-2,3,5,8,13-pentazatricyclo[8.4.0.02,6]tetradeca-1(10),3,5,8,11,13-hexaene-4-carboxamide] | 10.7 nM | 175% | 2.75 |
| C[C@@H]1N=C(c2c(F)cccc2F)c2c(cnc(C(F)(F)F)c2Cl)-n2nc(C(=O)NCC3(O)CC3)nc21 [Example 22, (7S)-11-chloro-9-(2,6-difluorophenyl)-N-[(1-hydroxycyclopropyl)methyl]-7-methyl-12-(trifluoromethyl)-2,3,5,8,13-pentazatricyclo[8.4.0.02,6]tetradeca-1(10),3,5,8,11,13-hexaene-4-carboxamide] | 6.4 nM | 172% | 2.72 |
